Patent publication US11590092B2, “Skin probiotic” (The Regents of the University of California, priority 2014, dated 2023)

System: C. albicans
Assay: Minimal fungicidal concentration test against C. albicans
Format: cell-based, Candida albicans
Conditions: MBC/MFC test
Method: To determine the minimal bactericidal concentration (MBC) and minimal fungicidal concentration (MFC) of propionic acid, microorganisms (10^6 colony forming units (cfu)/ml) were incubated overnight in media with propionic acid (1.25-2,000 mM) in a 96-well microplate (100 μl per well). The control only received PBS. After incubation, the microorganisms were diluted 1:10-1:10^6 into PBS. The dilutions (5 μl) were spotted onto agar media to count cfu; MBC/MFC were determined at 99.9% killing level. To determine the effect of pH on growth of S. aureus USA300, the bacterium was incubated in TSB at pH 5.8 and 6.8, and TSB with 25 mM propionic acid at pH 5.8 and 6.8 (buffered with 4-(2-hydroxyethyl)-1-piperazineethanesulfonic acid (HEPES)) in a 96-well microplate overnight before spotting onto agar plates.

SMILES: CCC(=O)O [propionic acid]
- concentration that completely killed C. albicans: greater than or equal to 25 mM
- concentration that effectively suppressed the growth of C. albicans: greater than 10 mM
